ChEMBL document CHEMBL5608169, “A chemical modification of a peroxisome proliferator-activated receptor pan agonist produced a shift to a new dual alpha/gamma partial agonist endowed with mitochondrial pyruvate carrier inhibition and antidiabetic properties” (Eur J Med Chem, 2024)
Activity calls are given as the source filed them. No cut-off for these calls is given here.

How the values were obtained:
[1] = target: T1, Peroxisome proliferator-activated receptor gamma (Homo sapiens, UniProt P37231); test: Partial agonist activity at N-terminal Gal4-fused human PPARgamma LBD transfected in human HepG2 cells assessed as receptor transactivation incubated for 20 hrs by luciferase based luminometric assay; assay type: cell-based
T1 sequence (P37231 whole entry): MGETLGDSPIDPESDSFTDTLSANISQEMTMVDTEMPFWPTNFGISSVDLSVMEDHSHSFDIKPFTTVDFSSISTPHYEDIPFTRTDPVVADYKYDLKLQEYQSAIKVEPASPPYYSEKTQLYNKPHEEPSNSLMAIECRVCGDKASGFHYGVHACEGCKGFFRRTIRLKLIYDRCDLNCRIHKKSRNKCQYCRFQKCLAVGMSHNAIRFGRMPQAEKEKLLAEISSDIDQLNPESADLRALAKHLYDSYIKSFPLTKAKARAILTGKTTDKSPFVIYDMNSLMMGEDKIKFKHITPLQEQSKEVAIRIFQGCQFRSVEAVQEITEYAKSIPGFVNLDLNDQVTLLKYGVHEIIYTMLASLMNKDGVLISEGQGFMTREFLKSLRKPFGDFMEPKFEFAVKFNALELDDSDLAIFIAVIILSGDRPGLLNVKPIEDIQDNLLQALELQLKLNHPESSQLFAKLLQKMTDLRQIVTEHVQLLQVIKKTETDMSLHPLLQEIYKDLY

[2] = target: T2, Peroxisome proliferator-activated receptor alpha (Homo sapiens, UniProt Q07869); test: Partial agonist activity at N-terminal Gal4-fused human PPARalpha LBD transfected in human HepG2 cells assessed as receptor transactivation incubated for 20 hrs by luciferase based luminometric assay; assay type: cell-based
T2 sequence (Q07869 whole entry): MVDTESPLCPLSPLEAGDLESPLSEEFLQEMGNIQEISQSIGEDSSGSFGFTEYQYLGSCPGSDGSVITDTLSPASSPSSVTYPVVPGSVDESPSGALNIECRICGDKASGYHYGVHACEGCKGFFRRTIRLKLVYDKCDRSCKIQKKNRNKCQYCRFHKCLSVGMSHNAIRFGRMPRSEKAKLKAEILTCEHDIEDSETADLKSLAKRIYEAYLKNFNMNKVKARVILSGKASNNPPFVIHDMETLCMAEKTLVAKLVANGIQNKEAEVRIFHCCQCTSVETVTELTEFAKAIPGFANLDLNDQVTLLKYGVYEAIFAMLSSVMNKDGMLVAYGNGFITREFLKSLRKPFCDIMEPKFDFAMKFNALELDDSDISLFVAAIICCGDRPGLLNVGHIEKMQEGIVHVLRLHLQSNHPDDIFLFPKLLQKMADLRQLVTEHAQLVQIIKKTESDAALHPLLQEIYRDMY

HepG2 = test: Inhibition of lipid accumulation in oleic acid induced human HepG2 cells at 10 uM pretreated with oleic-acid for 24 hrs followed by compound addition and measured after 72 hrs by Oil Red O staining based analysis; assay type: functional, cell-based
C2C12 [3] = test: Inhibition of mitochondrial pyruvate carrier in mouse C2C12 cells assessed as increase of extracellular acidification rate at 10 uM incubated for 24 hrs by Seahorse XF pro analyzer; assay type: functional, cell-based
C2C12 [4] = test: Inhibition of mitochondrial pyruvate carrier in mouse C2C12 cells assessed as effect on oxygen consumption rate at 10 uM incubated for 24 hrs by Seahorse XF pro analyzer; assay type: functional, cell-based
C2C12 [5] = test: Inhibition of mitochondrial pyruvate carrier in mouse C2C12 cells assessed as effect on ATP production at 10 uM incubated for 24 hrs by Seahorse XF pro analyzer; assay type: functional, cell-based
C2C12 [6] = test: Inhibition of mitochondrial pyruvate carrier in mouse C2C12 cells assessed as increase in OCR/ECAR ratio at 10 uM incubated for 24 hrs by Seahorse XF pro analyzer; assay type: functional, cell-based
Mus musculus [7] = test: Antihyperglycemic activity in STZ-induced diabetic Swiss albino mouse model assessed as fasting blood glucose at 30 mg/kg, po and measured immediately by glucose meter analysis (reference value: 365 +/-54.25 mg/dl); assay type: functional
Mus musculus [8] = test: Antihyperglycemic activity in STZ-induced diabetic Swiss albino mouse model assessed as fasting blood glucose at 30 mg/kg, po measured after 5 days by glucose meter analysis (reference value: […] +/- 63.77 mg/dl); assay type: functional; settings: time 5 day
Mus musculus [9] = test: Antihyperglycemic activity in STZ-induced diabetic Swiss albino mouse model assessed as fasting blood glucose at 30 mg/kg, po measured after 10 days by glucose meter analysis (reference value: 435.2 +/-46.89 mg/dl); assay type: functional; settings: time 10 day
Mus musculus [10] = test: Antihyperglycemic activity in STZ-induced diabetic Swiss albino mouse model assessed as fasting blood glucose at 30 mg/kg, po measured after 15 days by glucose meter analysis (reference value: 452.6 +/-48.94 mg/dl); assay type: functional; settings: time 15 day
Mus musculus [11] = test: Antihyperglycemic activity in STZ-induced diabetic Swiss albino mouse model assessed as total cholesterol level at 30 mg/kg, po by biochemical analysis (reference value: 184.33 +/- […]); assay type: functional
Mus musculus [12] = test: Antihyperglycemic activity in STZ-induced diabetic Swiss albino mouse model assessed as high-density lipoprotein cholesterol level at 30 mg/kg, po by biochemical analysis (reference value: 43.33 +/-[…]); assay type: functional
Mus musculus [13] = test: Antihyperglycemic activity in STZ-induced diabetic Swiss albino mouse model assessed as low-density lipoprotein cholesterol level at 30 mg/kg, po by biochemical analysis (reference value: 113.33 +/- 0.35 mg/dl); assay type: functional
Mus musculus [14] = test: Antihyperglycemic activity in STZ-induced diabetic Swiss albino mouse model assessed as very low-density lipoprotein cholesterol level at 30 mg/kg, po by biochemical analysis (reference value: 27.77 +/- 0.15 mg/dl); assay type: functional
Mus musculus [15] = test: Antihyperglycemic activity in STZ-induced diabetic Swiss albino mouse model assessed as triglyceride level at 30 mg/kg, po by biochemical analysis (reference value: 139.33 +/- 0.88 mg/dl); assay type: functional
[16] = target: T3, Peroxisome proliferator-activated receptor delta (Homo sapiens, UniProt Q03181); test: Partial agonist activity at N-terminal Gal4-fused human PPARdelta LBD transfected in human HepG2 cells assessed as receptor transactivation incubated for 20 hrs by luciferase based luminometric assay; assay type: cell-based
T3 sequence (Q03181 whole entry): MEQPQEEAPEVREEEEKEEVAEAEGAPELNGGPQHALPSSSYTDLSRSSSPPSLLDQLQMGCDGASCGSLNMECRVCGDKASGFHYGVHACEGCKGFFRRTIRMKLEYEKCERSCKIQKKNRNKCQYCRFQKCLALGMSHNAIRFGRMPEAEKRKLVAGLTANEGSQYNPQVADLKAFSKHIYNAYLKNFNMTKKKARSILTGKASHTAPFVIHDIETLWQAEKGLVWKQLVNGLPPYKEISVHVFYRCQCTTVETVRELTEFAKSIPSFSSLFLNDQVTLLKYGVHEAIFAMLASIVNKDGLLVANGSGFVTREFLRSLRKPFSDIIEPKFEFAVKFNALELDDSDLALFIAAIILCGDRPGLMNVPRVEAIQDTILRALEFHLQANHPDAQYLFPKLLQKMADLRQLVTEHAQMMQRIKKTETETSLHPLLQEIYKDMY

## CC[C@H](Oc1ccc(-c2cccc3ccccc23)cc1)C(=O)O.NC1CCCCC1
[1]
  EC50: 11000 nM
[2]
  EC50: 183 nM

## C[C@H](Oc1ccc(-c2cccc3ccccc23)cc1)C(=O)O
[2]
  EC50: 1800 nM

## CC[C@@H](Oc1ccc(-c2cccc3ccccc23)cc1)C(=O)O.NC1CCCCC1
[1]
  EC50: 7300 nM
[2]
  EC50: 1420 nM

## CCC(Oc1ccc(-c2cccc3ccccc23)cc1)C(=O)O (racemic)
[1]
  EC50: 10000 nM
[2]
  EC50: 460 nM

## CN(CCOc1ccc(CC2SC(=O)NC2=O)cc1)c1ccccn1 (stereo not drawn)
HepG2
  inhibition: Active
C2C12 [3]
  inhibition: inactive
C2C12 [4]
  inhibition: inactive
C2C12 [5]
  inhibition: inactive
C2C12 [6]
  inhibition: inactive

## CCc1ccc(CCOc2ccc(CC3SC(=O)NC3=O)cc2)nc1 (stereo not drawn) [PIOGLITAZONE]
Mus musculus [7]
  Activity: 441.2 mg/dL
Mus musculus [8]
  Activity: 351 mg/dL
Mus musculus [9]
  Activity: 248 mg/dL
Mus musculus [10]
  Activity: 224.2 mg/dL
Mus musculus [11]
  Activity: 88.67 mg/dL
Mus musculus [12]
  Activity: 19.67 mg/dL
Mus musculus [13]
  Activity: 20.5 mg/dL
Mus musculus [14]
  Activity: 19.33 mg/dL
Mus musculus [15]
  Activity: 98.33 mg/dL

## CCCc1c(OCCCOc2ccc(OCC(=O)O)cc2)ccc(C(C)=O)c1O
[16]
  EC50: 1600 nM

## C[C@@H](Oc1ccc(-c2cccc3ccccc23)cc1)C(=O)O
[2]
  EC50: 2300 nM
